Columns and labels:
Experiment in all cases: relative viability (nuclei count vs DMSO), 5 days (fraction); higher = more cells survive
[1] = tested on: LXF-289
Summary of the method: (§1)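 Relative viability was taken as the ratio of nuclei in treated wells to nuclei in vehicle wells. Lung cancer cell lines in 1536-well plates received compounds by pin tool one day after seeding, either one drug alone or a fixed anchor-drug dose plus five library-drug doses (not always all listed) in √10 steps. Nuclei were counted on 4× images after 5 days of treatment, and values are medians of duplicate plates.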

[2] = tested on: EMC-BAC-2
Summary of the method: as §1

[3] = tested on: NCI-H2126
Summary of the method: as §1

[4] = tested on: NCI-H1993
Summary of the method: as §1

[5] = tested on: H3255
Summary of the method: as §1

[6] = tested on: HOP-62
Summary of the method: as §1

[7] = tested on: NCI-H322M
Summary of the method: as §1

[8] = tested on: NCI-H727
Summary of the method: as §1

[9] = tested on: NCI-H2347
Summary of the method: as §1

[10] = tested on: NCI-H358
Summary of the method: as §1

[11] = tested on: BEN
Summary of the method: as §1

[12] = tested on: NCI-H2342
Summary of the method: as §1

[13] = tested on: PC-14
Summary of the method: as §1

[14] = tested on: NCI-H1915
Summary of the method: as §1

[15] = tested on: NCI-H2085
Summary of the method: as §1

[16] = tested on: NCI-H647
Summary of the method: as §1

[17] = tested on: LCLC-97TM1
Summary of the method: as §1

Clc1ccc(Nc2nnc(Cc3ccncc3)c3ccccc23)cc1 [Vatalanib] + NC(=O)Nc1cc(-c2cccc(F)c2)sc1C(=O)N[C@H]1CCCNC1 [AZD7762] (partner 0.2 µM)
relative viability ([1]; first compound 0.04 µM): 1.14
relative viability ([1]; first compound 0.1265 µM): 0.97
relative viability ([1]; first compound 0.4 µM): 1.21
relative viability ([1]; first compound 1.265 µM): 1.01
relative viability ([1]; first compound 4 µM): 1.03
relative viability ([2]; first compound 0.04 µM): 1.05
relative viability ([2]; first compound 0.1265 µM): 0.991
relative viability ([2]; first compound 0.4 µM): 1.12
relative viability ([2]; first compound 4 µM): 1.15
relative viability ([3]; first compound 0.04 µM): 0.994
relative viability ([3]; first compound 0.1265 µM): 0.99
relative viability ([3]; first compound 0.4 µM): 1.02
relative viability ([3]; first compound 1.265 µM): 0.995
relative viability ([3]; first compound 4 µM): 1.07
relative viability ([4]; first compound 0.04 µM): 0.4
relative viability ([4]; first compound 0.1265 µM): 0.934
relative viability ([4]; first compound 0.4 µM): 0.728
relative viability ([4]; first compound 1.265 µM): 0.713
relative viability ([4]; first compound 4 µM): 0.737
relative viability ([5]; first compound 0.04 µM): 0.829
relative viability ([5]; first compound 0.1265 µM): 0.892
relative viability ([5]; first compound 0.4 µM): 0.832
relative viability ([5]; first compound 1.265 µM): 0.732
relative viability ([5]; first compound 4 µM): 0.773
relative viability ([6]; first compound 0.04 µM): 0.792
relative viability ([6]; first compound 0.1265 µM): 0.618
relative viability ([6]; first compound 0.4 µM): 0.603
relative viability ([6]; first compound 1.265 µM): 0.695
relative viability ([6]; first compound 4 µM): 0.681
relative viability ([7]; first compound 0.04 µM): 0.543
relative viability ([7]; first compound 0.1265 µM): 0.527
relative viability ([7]; first compound 0.4 µM): 0.503
relative viability ([7]; first compound 4 µM): 0.47
relative viability ([8]; first compound 0.1265 µM): 0.49
relative viability ([8]; first compound 0.4 µM): 0.774
relative viability ([8]; first compound 1.265 µM): 0.654
relative viability ([8]; first compound 4 µM): 0.538
relative viability ([9]; first compound 0.04 µM): 0.776
relative viability ([9]; first compound 0.1265 µM): 0.932
relative viability ([9]; first compound 0.4 µM): 0.901
relative viability ([9]; first compound 1.265 µM): 0.521
relative viability ([9]; first compound 4 µM): 0.769
relative viability ([10]; first compound 0.04 µM): 0.694
relative viability ([10]; first compound 0.1265 µM): 0.441
relative viability ([10]; first compound 0.4 µM): 0.57
relative viability ([10]; first compound 1.265 µM): 0.446
relative viability ([10]; first compound 4 µM): 0.481
relative viability ([11]; first compound 0.04 µM): 0.676
relative viability ([11]; first compound 0.1265 µM): 0.732
relative viability ([11]; first compound 0.4 µM): 0.596
relative viability ([11]; first compound 1.265 µM): 0.602
relative viability ([11]; first compound 4 µM): 0.685
relative viability ([12]; first compound 0.04 µM): 0.453
relative viability ([12]; first compound 0.1265 µM): 0.537
relative viability ([12]; first compound 0.4 µM): 0.378
relative viability ([12]; first compound 1.265 µM): 0.484
relative viability ([12]; first compound 4 µM): 0.45
relative viability ([13]; first compound 0.04 µM): 0.31
relative viability ([13]; first compound 0.1265 µM): 0.332
relative viability ([13]; first compound 1.265 µM): 0.26
relative viability ([13]; first compound 4 µM): 0.318
relative viability ([14]; first compound 0.04 µM): 0.717
relative viability ([14]; first compound 0.1265 µM): 0.665
relative viability ([14]; first compound 0.4 µM): 0.716
relative viability ([14]; first compound 1.265 µM): 0.653
relative viability ([14]; first compound 4 µM): 0.661
relative viability ([15]; first compound 0.04 µM): 1.12
relative viability ([15]; first compound 0.1265 µM): 1
relative viability ([15]; first compound 0.4 µM): 0.998
relative viability ([15]; first compound 1.265 µM): 0.862
relative viability ([15]; first compound 4 µM): 0.928
relative viability ([16]; first compound 0.04 µM): 0.489
relative viability ([16]; first compound 0.1265 µM): 0.45
relative viability ([16]; first compound 0.4 µM): 0.395
relative viability ([16]; first compound 1.265 µM): 0.391
relative viability ([16]; first compound 4 µM): 0.46
relative viability ([17]; first compound 0.04 µM): 0.24
relative viability ([17]; first compound 0.1265 µM): 0.263
relative viability ([17]; first compound 0.4 µM): 0.222
relative viability ([17]; first compound 1.265 µM): 0.172
relative viability ([17]; first compound 4 µM): 0.23

CC(C)Oc1cc(Nc2nc(N[C@@H](C)c3ccc(F)cn3)ncc2Cl)n[nH]1 [AZ23] + NC(=O)Nc1cc(-c2cccc(F)c2)sc1C(=O)N[C@H]1CCCNC1 [AZD7762] (partner 0.2 µM)
relative viability ([1]; first compound 0.01 µM): 1.14
relative viability ([1]; first compound 0.03162 µM): 1.24
relative viability ([1]; first compound 0.3162 µM): 1.27
relative viability ([2]; first compound 0.01 µM): 0.983
relative viability ([2]; first compound 0.03162 µM): 1.21
relative viability ([2]; first compound 0.3162 µM): 1.03
relative viability ([3]; first compound 0.01 µM): 1.04
relative viability ([3]; first compound 0.03162 µM): 1.07
relative viability ([3]; first compound 0.3162 µM): 1.07
relative viability ([4]; first compound 0.01 µM): 0.703
relative viability ([4]; first compound 0.03162 µM): 0.749
relative viability ([4]; first compound 0.3162 µM): 0.965
relative viability ([5]; first compound 0.01 µM): 0.828
relative viability ([5]; first compound 0.03162 µM): 0.958
relative viability ([5]; first compound 0.3162 µM): 0.931
relative viability ([6]; first compound 0.01 µM): 0.493
relative viability ([6]; first compound 0.03162 µM): 0.804
relative viability ([6]; first compound 0.3162 µM): 0.863
relative viability ([7]; first compound 0.01 µM): 0.468
relative viability ([7]; first compound 0.03162 µM): 0.527
relative viability ([7]; first compound 0.3162 µM): 0.614
relative viability ([8]; first compound 0.01 µM): 0.628
relative viability ([8]; first compound 0.03162 µM): 0.802
relative viability ([8]; first compound 0.3162 µM): 0.597
relative viability ([9]; first compound 0.01 µM): 0.718
relative viability ([9]; first compound 0.03162 µM): 0.818
relative viability ([9]; first compound 0.3162 µM): 0.782
relative viability ([10]; first compound 0.01 µM): 0.447
relative viability ([10]; first compound 0.03162 µM): 0.653
relative viability ([10]; first compound 0.3162 µM): 0.514
relative viability ([11]; first compound 0.01 µM): 0.659
relative viability ([11]; first compound 0.03162 µM): 0.759
relative viability ([11]; first compound 0.3162 µM): 0.746
relative viability ([12]; first compound 0.01 µM): 0.442
relative viability ([12]; first compound 0.03162 µM): 0.569
relative viability ([12]; first compound 0.3162 µM): 0.483
relative viability ([13]; first compound 0.01 µM): 0.326
relative viability ([13]; first compound 0.03162 µM): 0.339
relative viability ([13]; first compound 0.3162 µM): 0.375
relative viability ([14]; first compound 0.01 µM): 0.758
relative viability ([14]; first compound 0.03162 µM): 0.737
relative viability ([14]; first compound 0.3162 µM): 0.796
relative viability ([15]; first compound 0.01 µM): 0.923
relative viability ([15]; first compound 0.03162 µM): 0.975
relative viability ([15]; first compound 0.3162 µM): 1.08
relative viability ([16]; first compound 0.01 µM): 0.296
relative viability ([16]; first compound 0.03162 µM): 0.615
relative viability ([16]; first compound 0.3162 µM): 0.806
relative viability ([17]; first compound 0.01 µM): 0.239
relative viability ([17]; first compound 0.03162 µM): 0.327
relative viability ([17]; first compound 0.3162 µM): 0.175
